Assay results: US20150005281A1, “PYRIMIDINE-2,4-DIAMINE DERIVATIVES AS KINASE INHIBITORS” (Cellzome Limited, priority 2011, published 2015)
Counter-ions that a name gives are not always drawn.

Legend:
Format in all cases: binding
JAK3 = molecular target: T1, JAK3 (Homo sapiens, UniProt P52333); test: Kinobeads assay with immunodetection, JAK3; details: for IC50: Kinobeads assay, mixed Molt4/Ramos lysate, read-out: Inhibition values (IC50) JAK3
T1 construct: endogenous in cells; host or cells: Molt4 (ATCC CRL-1582) and Ramos (ATCC CRL-1596) cells; mixed lysate 1:2
T1 sequence (P52333 1-1124): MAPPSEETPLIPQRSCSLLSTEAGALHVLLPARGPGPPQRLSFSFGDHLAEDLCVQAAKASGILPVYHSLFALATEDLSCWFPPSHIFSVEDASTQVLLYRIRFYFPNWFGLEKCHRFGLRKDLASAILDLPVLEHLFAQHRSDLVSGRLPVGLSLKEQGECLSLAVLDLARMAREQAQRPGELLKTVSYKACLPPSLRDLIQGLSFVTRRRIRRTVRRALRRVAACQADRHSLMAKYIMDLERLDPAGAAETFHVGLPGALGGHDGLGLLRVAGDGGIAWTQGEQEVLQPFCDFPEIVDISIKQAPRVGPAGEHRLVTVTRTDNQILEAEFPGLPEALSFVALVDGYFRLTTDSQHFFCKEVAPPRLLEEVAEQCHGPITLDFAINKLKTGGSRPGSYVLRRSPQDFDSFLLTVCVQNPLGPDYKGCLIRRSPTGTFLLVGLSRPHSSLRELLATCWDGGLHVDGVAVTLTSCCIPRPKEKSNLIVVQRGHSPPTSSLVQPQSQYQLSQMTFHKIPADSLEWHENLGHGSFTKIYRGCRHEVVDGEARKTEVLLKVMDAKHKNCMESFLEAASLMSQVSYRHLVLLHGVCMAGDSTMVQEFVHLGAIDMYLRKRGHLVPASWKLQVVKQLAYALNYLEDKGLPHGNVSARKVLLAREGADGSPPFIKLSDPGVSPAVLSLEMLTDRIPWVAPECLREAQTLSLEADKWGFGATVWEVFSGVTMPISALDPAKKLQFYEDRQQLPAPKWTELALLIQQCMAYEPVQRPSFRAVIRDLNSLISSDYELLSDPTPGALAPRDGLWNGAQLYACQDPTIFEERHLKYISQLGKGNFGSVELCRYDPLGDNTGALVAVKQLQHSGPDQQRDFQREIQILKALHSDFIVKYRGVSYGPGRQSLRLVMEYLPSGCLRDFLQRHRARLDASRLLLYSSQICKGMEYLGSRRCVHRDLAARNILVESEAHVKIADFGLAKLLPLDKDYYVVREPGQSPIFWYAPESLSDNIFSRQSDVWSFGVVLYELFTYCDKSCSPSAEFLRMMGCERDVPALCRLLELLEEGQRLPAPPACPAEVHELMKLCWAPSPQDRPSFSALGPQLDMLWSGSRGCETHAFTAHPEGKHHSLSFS
Procedure, shortened: (§1)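 Inhibition of kinase capture on aminopyrido-pyrimidine beads was measured after a 3 h cold incubation in mixed human leukemia and lymphoma cell lysate. Bound kinase was quantified by immunodetection and IC50s were calculated.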

TYK2 = molecular target: T2, TYK2 (Homo sapiens, UniProt P29597); test: Kinobeads assay with immunodetection, TYK2; details: for IC50: Kinobeads assay, mixed Molt4/Ramos lysate, read-out: Inhibition values (IC50) Tyk2
T2 construct: endogenous in cells; host or cells: Molt4 (ATCC CRL-1582) and Ramos (ATCC CRL-1596) cells; mixed lysate 1:2
Procedure, shortened: as §1

JAK2 = molecular target: T3, JAK2 (Homo sapiens, UniProt O60674); test: Kinobeads assay with immunodetection, JAK2; details: mixed Molt4/Ramos lysate, read-out: Inhibition values (IC50) JAK2
T3 construct: endogenous in cells; host or cells: Molt4 (ATCC CRL-1582) and Ramos (ATCC CRL-1596) cells; mixed lysate 1:2
Procedure, shortened: as §1

JAK1 = molecular target: T4, JAK1 (Homo sapiens, UniProt P23458); test: Kinobeads assay with immunodetection, JAK1; details: for IC50: Kinobeads assay, mixed Molt4/Ramos lysate, read-out: Inhibition values (IC50) JAK1
T4 construct: endogenous in cells; host or cells: Molt4 (ATCC CRL-1582) and Ramos (ATCC CRL-1596) cells; mixed lysate 1:2
Procedure, shortened: as §1

T4 sequence (P23458 whole entry): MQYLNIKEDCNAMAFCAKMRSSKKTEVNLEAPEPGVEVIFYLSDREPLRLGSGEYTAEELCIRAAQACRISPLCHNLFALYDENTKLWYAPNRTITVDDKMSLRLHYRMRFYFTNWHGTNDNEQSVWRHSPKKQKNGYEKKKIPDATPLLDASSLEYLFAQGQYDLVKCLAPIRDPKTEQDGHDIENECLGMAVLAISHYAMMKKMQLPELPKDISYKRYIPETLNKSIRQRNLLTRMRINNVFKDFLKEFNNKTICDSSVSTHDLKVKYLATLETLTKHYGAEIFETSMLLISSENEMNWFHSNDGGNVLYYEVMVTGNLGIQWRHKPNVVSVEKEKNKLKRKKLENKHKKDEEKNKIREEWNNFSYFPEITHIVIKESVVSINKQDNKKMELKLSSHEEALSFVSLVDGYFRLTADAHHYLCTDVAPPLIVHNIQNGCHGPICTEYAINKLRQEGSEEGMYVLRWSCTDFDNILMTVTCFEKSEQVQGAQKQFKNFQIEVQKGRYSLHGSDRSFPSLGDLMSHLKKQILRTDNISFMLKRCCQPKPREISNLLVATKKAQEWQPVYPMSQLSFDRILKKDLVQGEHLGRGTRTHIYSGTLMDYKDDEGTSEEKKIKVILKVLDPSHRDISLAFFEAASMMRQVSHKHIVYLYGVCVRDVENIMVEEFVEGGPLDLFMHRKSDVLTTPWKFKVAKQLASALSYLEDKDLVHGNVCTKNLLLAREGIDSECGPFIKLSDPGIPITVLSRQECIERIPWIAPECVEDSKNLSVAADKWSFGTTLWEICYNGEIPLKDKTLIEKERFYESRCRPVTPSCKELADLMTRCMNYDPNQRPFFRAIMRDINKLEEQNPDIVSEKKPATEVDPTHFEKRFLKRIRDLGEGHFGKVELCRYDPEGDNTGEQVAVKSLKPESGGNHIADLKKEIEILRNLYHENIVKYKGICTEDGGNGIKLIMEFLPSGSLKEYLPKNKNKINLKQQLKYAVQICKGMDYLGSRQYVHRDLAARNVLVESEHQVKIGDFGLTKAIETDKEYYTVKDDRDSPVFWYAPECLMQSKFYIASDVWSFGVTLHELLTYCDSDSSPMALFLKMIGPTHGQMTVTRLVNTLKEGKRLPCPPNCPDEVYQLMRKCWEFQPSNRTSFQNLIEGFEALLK
T3 sequence (O60674 whole entry): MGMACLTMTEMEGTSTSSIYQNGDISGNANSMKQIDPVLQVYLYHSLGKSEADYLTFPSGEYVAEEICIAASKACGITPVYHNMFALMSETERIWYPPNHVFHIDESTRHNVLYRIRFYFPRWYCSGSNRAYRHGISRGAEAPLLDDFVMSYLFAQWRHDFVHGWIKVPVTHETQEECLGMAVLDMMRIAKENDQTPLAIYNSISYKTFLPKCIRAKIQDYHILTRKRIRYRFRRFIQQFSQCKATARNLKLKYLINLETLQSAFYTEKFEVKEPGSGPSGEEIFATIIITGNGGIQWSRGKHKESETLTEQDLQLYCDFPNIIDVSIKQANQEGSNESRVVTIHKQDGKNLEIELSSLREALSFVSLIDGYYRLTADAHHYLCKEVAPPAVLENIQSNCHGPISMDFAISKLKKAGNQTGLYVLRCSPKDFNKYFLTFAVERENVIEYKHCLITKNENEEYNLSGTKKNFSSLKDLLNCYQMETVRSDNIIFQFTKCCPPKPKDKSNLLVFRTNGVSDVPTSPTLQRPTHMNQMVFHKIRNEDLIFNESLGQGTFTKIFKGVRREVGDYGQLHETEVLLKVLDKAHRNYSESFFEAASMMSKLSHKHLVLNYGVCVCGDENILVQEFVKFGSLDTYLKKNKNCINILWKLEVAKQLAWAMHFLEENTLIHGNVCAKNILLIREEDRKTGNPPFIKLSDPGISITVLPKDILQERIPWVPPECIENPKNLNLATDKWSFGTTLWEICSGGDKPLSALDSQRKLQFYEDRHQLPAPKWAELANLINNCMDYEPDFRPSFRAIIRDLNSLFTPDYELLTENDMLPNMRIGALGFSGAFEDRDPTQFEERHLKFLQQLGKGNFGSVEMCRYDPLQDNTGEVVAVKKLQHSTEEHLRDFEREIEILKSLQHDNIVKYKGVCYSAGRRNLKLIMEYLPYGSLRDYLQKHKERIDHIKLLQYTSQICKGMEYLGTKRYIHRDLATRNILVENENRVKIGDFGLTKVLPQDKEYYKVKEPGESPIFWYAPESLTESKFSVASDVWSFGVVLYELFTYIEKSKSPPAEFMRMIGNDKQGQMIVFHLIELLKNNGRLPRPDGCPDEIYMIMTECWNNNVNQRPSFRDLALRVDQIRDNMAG
T2 sequence (P29597 whole entry): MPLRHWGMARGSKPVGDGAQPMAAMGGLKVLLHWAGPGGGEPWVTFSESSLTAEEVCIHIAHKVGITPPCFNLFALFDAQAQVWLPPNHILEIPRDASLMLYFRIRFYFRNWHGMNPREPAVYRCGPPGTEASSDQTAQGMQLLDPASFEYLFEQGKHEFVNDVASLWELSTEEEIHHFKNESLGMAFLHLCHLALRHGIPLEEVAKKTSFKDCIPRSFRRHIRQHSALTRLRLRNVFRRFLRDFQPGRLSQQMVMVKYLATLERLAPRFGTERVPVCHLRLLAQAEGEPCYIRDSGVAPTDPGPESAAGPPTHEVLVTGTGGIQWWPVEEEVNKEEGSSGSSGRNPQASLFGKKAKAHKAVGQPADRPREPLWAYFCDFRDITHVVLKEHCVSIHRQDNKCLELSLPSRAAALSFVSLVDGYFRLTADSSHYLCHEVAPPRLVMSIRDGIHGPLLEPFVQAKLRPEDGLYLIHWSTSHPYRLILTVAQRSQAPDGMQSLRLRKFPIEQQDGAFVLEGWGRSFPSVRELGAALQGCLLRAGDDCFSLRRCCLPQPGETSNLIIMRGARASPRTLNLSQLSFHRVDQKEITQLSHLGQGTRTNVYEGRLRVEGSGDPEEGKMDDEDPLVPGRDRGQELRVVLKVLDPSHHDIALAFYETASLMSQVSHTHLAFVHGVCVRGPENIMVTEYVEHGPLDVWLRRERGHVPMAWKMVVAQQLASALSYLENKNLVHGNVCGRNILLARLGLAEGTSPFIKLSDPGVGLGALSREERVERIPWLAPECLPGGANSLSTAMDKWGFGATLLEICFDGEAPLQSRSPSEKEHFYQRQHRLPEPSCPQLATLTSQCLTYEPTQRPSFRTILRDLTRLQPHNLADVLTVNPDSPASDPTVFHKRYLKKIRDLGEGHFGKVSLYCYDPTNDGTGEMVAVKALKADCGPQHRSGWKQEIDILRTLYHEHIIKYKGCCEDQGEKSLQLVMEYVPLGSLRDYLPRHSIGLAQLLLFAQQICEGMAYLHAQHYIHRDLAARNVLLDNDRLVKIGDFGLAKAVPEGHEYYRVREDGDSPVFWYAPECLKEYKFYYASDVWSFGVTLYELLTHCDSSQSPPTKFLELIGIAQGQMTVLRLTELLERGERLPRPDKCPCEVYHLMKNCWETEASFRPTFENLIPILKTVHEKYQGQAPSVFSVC

Row | Compound | IC50 (JAK3) | IC50 (TYK2) | IC50 (JAK2) | Selectivity ratio over JAK2, JAK1 (JAK1) | IC50 (JAK1) | Selectivity ratio over JAK2, JAK3 (JAK3) | Selectivity ratio over JAK2, Tyk2 (TYK2; Tyk2 over JAK2)
1 | Cn1cc(Nc2ncc(Cl)c(NC[C@H]3CCN(C(=O)CC#N)C3)n2)cn1 [Example 58, (R)-3-(3-((5-chloro-2-(1-methyl-1H-pyrazol-4-ylamino)pyrimidin-4-ylamino)methyl)pyrrolidin-1-yl)-3-oxopropanenitrile] | < 100 nM | < 100 nM | 100 to 1000 nM | JAK1 = 15 | < 100 nM |  | 
2 | CCN1CCC[C@H]1CNc1nc(Nc2cnn(C)c2)ncc1Cl [Example 61, (S)-5-chloro-N4-((1-ethylpyrrolidin-2-yl)methyl)-N2-(1-methyl-1H-pyrazol-4-yl)pyrimidine-2,4-diamine] | 100 to 1000 nM | > 10000 nM | > 10000 nM | JAK1 = 49 | 100 to 1000 nM |  | 
3 | C=CC(=O)N1CC[C@H](CNc2nc(Nc3cnn(CCO)c3)ncc2Cl)C1 [Example 23, (R)-1-(3-(((5-chloro-2-((1-(2-hydroxyethyl)-1H-pyrazol-4-yl)amino)pyrimidin-4-yl)amino)methyl)pyrrolidin-1-yl)prop-2-en-1-one] | < 100 nM | < 100 nM | 1000 to 10000 nM |  | < 100 nM | JAK3 = 270 | 
4 | Cn1cc(Nc2ncc(Cl)c(NC[C@H]3CCCN3C3CCS(=O)(=O)C3)n2)cn1 (stereo partly drawn) [Example 115, 3-((R)-2-(((5-chloro-2-((1-methyl-1H-pyrazol-4-yl)amino)pyrimidin-4-yl)amino)methyl)pyrrolidin-1-yl)tetrahydrothiophene 1,1-dioxide] | < 100 nM | < 100 nM | 100 to 1000 nM |  | < 100 nM |  | Tyk2 = 68
5 | Cc1cnc(Nc2cnn(CC(F)F)c2)nc1NC[C@H]1CCN(CCC#N)C1 [Example 128, (R)-3-(3-(((2-((1-(2,2-difluoroethyl)-1H-pyrazol-4-yl)amino)-5-methylpyrimidin-4-yl)amino)methyl)pyrrolidin-1-yl)propanenitrile] | 100 to 1000 nM | 100 to 1000 nM | 1000 to 10000 nM | JAK1 = 77 | < 100 nM |  | 
6 | Cn1cc(Nc2ncc(Cl)c(NC[C@@H]3CCCN3CCCS(C)(=O)=O)n2)cn1 [Example 119, (S)-5-chloro-N^2-(1-methyl-1H-pyrazol-4-yl)-N^4-((1-(3-(methylsulfonyl)propyl)pyrrolidin-2-yl)methyl)pyrimidine-2,4-diamine] | 1000 to 10000 nM | 100 to 1000 nM | 1000 to 10000 nM | JAK1 = 68 | < 100 nM |  | 
7 | CNC(=O)Cn1cc(Nc2ncc(Cl)c(NC[C@@H]3CCCN3)n2)cn1 [Example 65, (S)-2-(4-(5-chloro-4-(pyrrolidin-2-ylmethylamino)pyrimidin-2-ylamino)-1H-pyrazol-1-yl)-N-methylacetamide] | 1000 to 10000 nM | 1000 to 10000 nM | > 10000 nM |  | 1000 to 10000 nM |  | 
8 | CN(C)C(=O)Cn1cc(Nc2ncc(Cl)c(NC[C@H]3CCCN3)n2)cn1 [Example 64, (R)-2-(4-(5-chloro-4-(pyrrolidin-2-ylmethylamino)pyrimidin-2-ylamino)-1H-pyrazol-1-yl)-N,N-dimethylacetamide] | 1000 to 10000 nM | 1000 to 10000 nM | > 10000 nM |  | 100 to 1000 nM |  | 
9 | Cn1cc(Nc2ncc(F)c(NC[C@H]3CCCN3)n2)cn1 [Example 70, (R)-5-fluoro-N^2-(1-methyl-1H-pyrazol-4-yl)-N^4-(pyrrolidin-2-ylmethyl)pyrimidine-2,4-diamine Hydrochloride] | > 10000 nM | > 10000 nM | > 10000 nM |  | 1000 to 10000 nM |  | 
10 | Cn1cc(Nc2ncc(Cl)c(NC[C@H]3CCCN3CCNS(C)(=O)=O)n2)cn1 [Example 126, (R)—N-(2-(2-(((5-chloro-2-((1-methyl-1H-pyrazol-4-yl)amino)pyrimidin-4-yl)amino)methyl)pyrrolidin-1-yl)ethyl)methanesulfonamide] | 100 to 1000 nM | < 100 nM | 100 to 1000 nM |  | < 100 nM | JAK3 = 46 | 
